From EP0437336B1, “Biophosphoryl hydrazines and their use as pesticides” (priority 1990, dated 1991)
Converted amounts (≈) assume the structure as drawn. Read-outs that look alike come from different tables or passages of the source.

How the values were obtained:
Two-Spotted Spider Mite = assay: Biological Method D: Foliar Insecticidal Activity Test, mite test; format: in vivo, Tetranychus urticae; design: key to LC50 TSM: I = inactive at concentration listed; settings: Method D foliar test, Two-Spotted Spider Mite; for LC50: Tetranychus urticae, read-out: LC50 TSM
Method: (§1) Biological Method D: Foliar Insecticidal Activity Test
(§2) In evaluating the foliar insecticidal activity of the compounds of this invention against insects and mites, the following test procedures were employed.
(§3) Not all compounds were tested at each of the several concentrations stated above. Test concentrations of a compound were selected as those most likely to differentiate dose response of a particular compound toward a particular test insect.
(§4) Initial evaluations were made on one or more of the following pests:
For the mite test, infested bean (Phaseolus limensis var. Woods Prolific) leaf discs [3.18 cm (1.25") in diameter] containing about 50 mites were placed in a Petri dish lid on a moistened piece of cotton. The leaves were then sprayed to thorough wetness with the test solution using a rotating turntable, held for twenty-four hours and then the percentage killed was determined.
(§5) The mortalities obtained in this manner were plotted on logarithmic probability paper.
(§6) The rotating turntable consists of a fixed, continuously operating spray nozzle under which targets are rotated at a fixed speed and distance. If the target is a Petri dish (such as for the bean beetle, armyworm, mite, or aphid tests), the distance from the nozzle is 38.1 cm (15 inches). If the target is a Mason jar (such as for the boll weevil test), the distance from the nozzle is 17.8 cm (7 inches). The nozzle is located 8 inches from the rotating shaft. The targets on individual platforms revolve around the shaft at 1 revolution per 20 seconds but only a brief portion of this time occurs in the spray path. Targets pass only once under the nozzle and then are removed to drying hoods.
(§7) The nozzle used is a 1/4 JCO Spraying Systems (Wheaton, Illinois) air atomizing nozzle equipped with a No. 2850 fluid cap and a No. 70 air cap. At the 68.95 x 10³ Pa gauge (10 psig) air pressure used and with liquid siphon feed, 1.89 ℓ/hr [0.5 GPH (gallons per hour)] are delivered in a round spray pattern with a 21 degree spray angle. Targets are misted with spray droplets to the point that the droplets coalesce to form a uniform thin film insufficient to drown test organisms.

Mexican Bean Beetle = assay: Biological Method D: Foliar Insecticidal Activity Test, Mexican Bean Beetle test; format: in vivo, Epilachna varivestis; design: key to LC50 BB 96 hrs / LC50 BB 48 hrs.: I = inactive at concentration listed; settings: Mexican Bean Beetle; for LC50: Epilachna varivestis
Method: as §1, §2, §3, §4
(§8) For the Mexican Bean Beetle and Southern armyworm tests, individual lima bean (Phaseolus limeniss var. Woods' Prolific) leaves were placed on moistened pieces of filter paper in Petri dishes. The leaves were then sprayed with the test solution using a rotating turntable and allowed to dry. The dishes were then infested with 10 third instar larvae of either the Mexican Been Beetle or the Southern Armyworm. The dishes were then covered. Percent mortality was determined for each species and spray concentration at 48 and 96 hours after treatment.
as §5, §6, §7

Boll Weevil [1] = assay: Biological Method D: Foliar Insecticidal Activity Test, boll weevil test; format: in vivo, Anthonomous grandis; settings: Method D foliar test, Boll Weevil
Method: as §1, §2, §3, §4
(§9) For the boll weevil test, 10 adult weevils were placed in a 0.24 ℓ (0.5 pint) glass Mason jar containing a small cube of apple. The weevils were confined to the jar by fiberglass screen mesh secured by a screw-type rim cap. The jars were then sprayed with the test solution using a rotating turntable; directing the spray through the mesh into the jar. The percentage killed was determined after forty-eight and ninety six hours.
as §5, §6, §7

Green Peach Aphid = assay: Biological Method D: Foliar Insecticidal Activity Test, aphid test; format: in vivo, Myzus persicae; design: key: I = inactive at concentration listed
Method: as §1, §2, §3, §4
For the aphid test, infested broccoli (Brassica oleracea italica var. DiCicco) leaves containing about 50 aphids were placed in a Petri dish lid on a moistened piece of cotton. The leaves were then sprayed to thorough wetness with the test solution using a rotating turntable, held for twenty-four hours and then the percentage killed was determined.
as §5, §6, §7

Southern Armyworm = assay: Biological Method D: Foliar Insecticidal Activity Test, Southern Armyworm test; format: in vivo, Spodoptera eridania; design: key: I = inactive at concentration listed
Method: as §1, §2, §3, §4, §8, §5, §6, §7

[2] = system: southern corn rootworm, Diabrotica undecimpunctata howardi; assay: Biological Method A: Corn Rootworm Screening Test (treated non-aggressive soil); settings: soil concentration giving 90% mortality, 10 days at 27°C
Boll Weevil [3] = assay: Biological Method D: Foliar Insecticidal Activity Test, boll weevil test; format: in vivo, Anthonomous grandis; design: key: I = inactive at concentration listed
Method: as §1, §2, §3, §4, §9, §5, §6, §7

[4] = Method D foliar test, 48 hrs, read-out: LC50 BB 48 hrs.
[5] = Method D foliar test, 96 hrs, read-out: LC50 BB 96 hrs

Row | SMILES | LC50 TSM (Two-Spotted Spider Mite) | LC50 BB 48 hrs. (Mexican Bean Beetle; Method D foliar test, 48 hrs) | LC50 BB 96 hrs (Mexican Bean Beetle; Method D foliar test, 96 hrs) | LC50 BW 48 hrs (Boll Weevil [1]) | LC50 BW 96 hrs (Boll Weevil [1]) | LC50 GPA (Green Peach Aphid) | LC50 AW 48 hrs (Southern Armyworm) | LC50 AW 96 hrs (Southern Armyworm) | primary nonagressive Method A crw LC90 [2] | LC50 (Two-Spotted Spider Mite) | LC50 (Mexican Bean Beetle; [4]) | LC50 (Mexican Bean Beetle; [5]) | LC50 BW 48 hrs (Boll Weevil [3]) | LC50 BW 96 hrs (Boll Weevil [3]) | LC50 (Mexican Bean Beetle; foliar, 48 hrs, compounds a-r, read-out: LC 50 BB 48 hrs.) | LC50 (Mexican Bean Beetle; foliar, 96 hrs, compounds a-r, read-out: LC 50 BB 96 hrs.)
1 | CCOP(=S)(NNP(=S)(OCC(C)(C)C)OCC(C)(C)C)OCC [Compound 59, reference compound] | I | I | I | 740 ppm | 740 ppm | I | I | I | I | – | – | – | – | – | – | –
2 | CCOP(=S)(NNP(=S)(OCC)OC(C)(C)C(F)(F)F)OCC (stereo not drawn) [Compound 40] | – | – | – | – | – | I | I | I | 1.0 ppm | 150 µg/mL (≈ 359 µM) | 38 µg/mL (≈ 90.8 µM) | 45 µg/mL (≈ 108 µM) | I | I | – | –
3 | CCOP(=S)(NNP1(=S)OCC(C)(C)CO1)OCC [Compound 61] | I | I | I | 740 ppm | 740 ppm | I | I | – | 1.1 ppm | – | – | – | – | – | – | –
4 | CCOP(=S)(NNP(=S)(OCC)SCC)OCC (stereo not drawn) [Compound 26] | – | – | – | – | – | I | I | I | 1.1 ppm | 640 µg/mL (≈ 1820 µM) | 150 µg/mL (≈ 426 µM) | 150 µg/mL (≈ 426 µM) | I | I | – | –
5 | CCOP(=S)(NNP(=S)(OCC)N1CCCC1)OCC (stereo not drawn) [Compound 60] | I | I | I | – | – | I | I | I | 1.1 ppm | – | – | – | I | I | – | –
6 | CCOP(=S)(NNP1(=S)N(C)CCN1C)OCC [Compound 3] | I | – | – | – | – | I | I | I | 4.5 ppm | – | – | – | I | I | – | –
7 | CCOP(=O)(NNP(=S)(OCC)OCC)SC(C)CC (stereo not drawn) [Compound 53] | I | I | I | 740 ppm | 740 ppm | I | I | I | 1.6 ppm | – | – | – | – | – | – | –
8 | CCOP(=O)(NNP(=S)(OCC)OCC)SCC (stereo not drawn) [Compound 21] | I | – | – | – | – | I | I | I | 4.7 ppm | – | – | – | I | I | – | –
9 | CCCOP(=S)(NNP(=O)(OCC)SCC)OCCC (stereo not drawn) [Compound 22] | I | – | – | – | – | I | I | I | I | – | 150 µg/mL (≈ 412 µM) | 115 µg/mL (≈ 316 µM) | I | I | – | –
10 | CCCOP(=S)(NNP(=S)(OC)OC)OCCC [Compound 37, reference compound] | – | – | – | – | – | I | I | I | 1.7 ppm | 450 µg/mL (≈ 1340 µM) | 150 µg/mL (≈ 446 µM) | 62 µg/mL (≈ 184 µM) | I | I | – | –
11 | CCOP(=O)(NNP(=S)(OCC)OC(C)CC)SC(C)CC (stereo not drawn) [Compound 56] | I | – | – | – | – | I | I | I | 1.1 ppm | – | 380 µg/mL (≈ 968 µM) | 31 µg/mL (≈ 79 µM) | I | I | – | –
12 | CCCNP(=S)(NNP(=S)(OCCC)OCCC)OCC (stereo not drawn) [Compound 25] | I | – | – | – | – | I | I | I | 2.5 ppm | – | 38 µg/mL (≈ 101 µM) | 13 µg/mL (≈ 34.4 µM) | I | I | – | –
13 | CCOP(=S)(NN(C)P(=S)(OCC)OCC)OC(C)C (stereo not drawn) [p] | – | – | – | – | – | – | – | – | – | – | – | – | – | – | 270 µg/mL (≈ 741 µM) | 78 µg/mL (≈ 214 µM)
14 | CCOP(=S)(NNP(=S)(OCC)N1CCCCC1)OCC (stereo not drawn) [Compound 62] | I | I | I | – | – | I | I | I | 1.1 ppm | – | – | – | I | I | – | –
15 | COP(=S)(NNP(=S)(OC)OC)OC [Compound 42, reference compound] | – | – | I | – | – | I | I | I | I | 150 µg/mL (≈ 535 µM) | 600 µg/mL (≈ 2140 µM) | – | I | I | – | –
16 | CCOP(=S)(NNP(=S)(OC)OC)OCC [Compound 36, reference compound] | – | I | – | – | – | I | I | I | 0.90 ppm | 79 µg/mL (≈ 256 µM) | – | 600 µg/mL (≈ 1950 µM) | I | I | – | –
